In patent US10106853B2, “CUL4B as predictive biomarker for cancer treatment” (CORNELL UNIVERSITY, priority 2012, dated 2018):

Biological target: T1, Top1 (Homo sapiens, UniProt P11387)
T1 construct: CPT-induced TOP1 degradation in breast cancer cell lines; host or cells: human breast cancer cell lines BT474, BT20, MCF-7, MDA-MB-231, T47D, Sk-Br-3 (MCF-10A as control)
T1 sequence (P11387 1-765): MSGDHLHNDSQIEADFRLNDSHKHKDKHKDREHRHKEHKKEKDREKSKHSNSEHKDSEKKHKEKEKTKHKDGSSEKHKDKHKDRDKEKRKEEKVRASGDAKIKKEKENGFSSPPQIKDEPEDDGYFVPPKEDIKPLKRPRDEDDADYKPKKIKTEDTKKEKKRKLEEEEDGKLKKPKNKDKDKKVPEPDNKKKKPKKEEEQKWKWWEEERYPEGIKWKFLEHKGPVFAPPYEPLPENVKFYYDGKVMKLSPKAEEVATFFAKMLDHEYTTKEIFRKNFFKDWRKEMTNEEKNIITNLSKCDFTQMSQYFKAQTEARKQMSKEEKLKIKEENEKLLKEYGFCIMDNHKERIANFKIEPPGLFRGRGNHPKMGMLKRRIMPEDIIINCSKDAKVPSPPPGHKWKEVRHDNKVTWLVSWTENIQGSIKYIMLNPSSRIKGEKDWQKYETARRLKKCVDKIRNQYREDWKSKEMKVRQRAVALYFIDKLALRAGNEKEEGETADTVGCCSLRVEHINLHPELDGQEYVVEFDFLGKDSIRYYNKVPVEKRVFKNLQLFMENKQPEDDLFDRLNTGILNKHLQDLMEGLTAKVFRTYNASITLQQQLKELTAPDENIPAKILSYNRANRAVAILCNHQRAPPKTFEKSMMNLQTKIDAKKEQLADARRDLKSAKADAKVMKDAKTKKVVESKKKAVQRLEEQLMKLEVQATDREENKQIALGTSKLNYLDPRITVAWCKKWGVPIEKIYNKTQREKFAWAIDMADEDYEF
Assay: CPT-induced TOP1 down regulation assay (immunoblotting)
Assay type: cell-based
Protocol: FIG. 1. CPT-induced TOP1 degradation in breast cancer cell lines. A) Expression of endogenous CUL4A and 4B in breast cancer cell lines. Total cell lysates were prepared from the indicated breast cancer cell lines and subjected to SDS PAGE and immunoblotting with antibodies against CUL4A, 4B and α-tubulin. The non-cancerous MCF-10A cell line was used as a control for comparison. B) CPT-induced TOP1 degradation in breast cancer cell lines. Cells were treated with 12.5 μM CPT or 1% DMSO for 4 hours, replenished with CPT-free fresh medium and incubated at 37° C. for 30 minutes to reverse the formation of TOP1 cleavable complex. Cells were then lysed and immunoblotted with the TOP1 and α-tubulin antibodies.
FIG. 2. CUL4B interacted with Top1 and induced Top1 degradation in the presence of CPT. A) Knockdown of CUL4B impaired CPT-induced Top1 degradation. BT474 cells were infected with lentiviral shCUL4B, shCUL4A or control non-targeting shRNA, and selected for stable CUL4B^k/d or CUL4A^k/d cells upon treatment with puromycin. Following treatment with CPT (50 μM) for 1 hour, cells were replenished with CPT-free fresh medium and incubated at 37° C. for 30 minutes. Top1 degradation was assessed by immunoblotting with an anti-Top1 antibody. Levels of α-tubulin were measured as a loading control. B) Association of CUL4B with Top1 following CPT treatment. BT474 cells were treated with proteosome inhibitor MG132 (15 μM) for 3 hours, and were subjected to crosslinking with 0.2 mM Dithiobis[succinimidyl propionate](DSP) for the last 30 min at room temperature. Cell lysates were prepared, and immunoprecipitated with the anti-Top1 or anti-CUL4B antibodies, and then immunoblotted using antibodies against CUL4B or Top1, respectively. IgG immunoprecipitates served as the negative control. C) Knockdown of CUL4B using a second shCUL4B-2 impaired CPT-induced Top1 degradation. BT474 cells were infected with lentiviral shCUL4B-2, shCUL4A-2 or control non-targeting shRNA and selected for stable CUL4B^k/d or CUL4A^k/d cells upon treatment with puromycin. Following treatment with CPT (50 μM) for 1.5 hr, cells were replenished with CPT-free fresh medium and incubated at 37° C. for 30 min. Top1 degradation was assessed by immunoblotting with the anti-Top1 antibody. Levels of α-tubulin were measured as a loading control. D) CUL4B inactivation sensitized BT474 cells to cytotoxic killing by camptothecin. BT474, BT474-CUL4A^k/d or BT474-CUL4B^k/d cells were synchronized with 1 μM nocodazole for 13 hours released in fresh medium, treated with the indicated concentrations of CPT for three days, and subjected to the XTT assay to measure the cytotoxic responses to CPT. […] The bars indicate the S.E. of six independent experiments. Statistical significance in cellular response to CPT between control BT474 cells and CUL4A^k/d or CUL4B^k/d cells were assessed by a two-tailed unpaired student t-test (***: p<0.001). The same results were obtained with a second lentiviral shRNA for CUL4A and CUL4B, as well as in T47D breast cancer cells. E, F) Knockdown of CUL4B increased the sensitivity of T47D cells to camptothecin. […] Statistical significance in cellular response to camptothecin between control cells and CUL4A^k/d or CUL4B^k/d BT474 cells are assessed by student's t-test.
CPT-induced Top1 degradation was monitored by immunoblotting of the alkaline lysates. […]

Compound | Effect of shRNA knockdown on CPT-induced Top1 degradation (BT474 cells, lentiviral shRNA, CPT 50 μM, 1 to 1.5 hr) | CPT-induced Top1 degradation compared to control (shCtrl) (CUL4A knockdown BT474 cells, CPT 50 μM, 1 hour) | CPT-induced Top1 degradation (CUL4B-silenced (CUL4B k/d) BT474 cells, CPT 50 μM, 1 hour) | Top1 degradation following treatment with CPT (breast cancer cells exhibiting elevated levels of CUL4B expression, 12.5 μM CPT, 4 hours)
shCUL4B: lentiviral shRNA CUL4B sequence purchased from Sigma Aldrich, reduces CUL4B expression (CCGGGCAGAATTTAAAGAGGGTAAACTCGAGTTTACCCTCTTTAAATTCTGCTTTTT) | impaired | – | – | –
CC[C@@]1(O)C(=O)OCc2c1cc1n(c2=O)Cc2cc3ccccc3nc2-1 [CPT, (S)-4-ethyl-4-hydroxy-1H-pyrano[3′,4′:6,7]indolizino[1,2-b]quinoline-3,14-(4H, 12H)-dione] | – | no effect | abolished | eliminated or markedly destroyed Top1
